Values quoted from earlier work, collected in patent publication US20070293552A1, “ANTIHYPERTENSIVE THERAPY METHOD” (priority 2006, published 2007).

Target: T1, ETA (Homo sapiens, UniProt P25101)
T1 sequence (P25101 21-427): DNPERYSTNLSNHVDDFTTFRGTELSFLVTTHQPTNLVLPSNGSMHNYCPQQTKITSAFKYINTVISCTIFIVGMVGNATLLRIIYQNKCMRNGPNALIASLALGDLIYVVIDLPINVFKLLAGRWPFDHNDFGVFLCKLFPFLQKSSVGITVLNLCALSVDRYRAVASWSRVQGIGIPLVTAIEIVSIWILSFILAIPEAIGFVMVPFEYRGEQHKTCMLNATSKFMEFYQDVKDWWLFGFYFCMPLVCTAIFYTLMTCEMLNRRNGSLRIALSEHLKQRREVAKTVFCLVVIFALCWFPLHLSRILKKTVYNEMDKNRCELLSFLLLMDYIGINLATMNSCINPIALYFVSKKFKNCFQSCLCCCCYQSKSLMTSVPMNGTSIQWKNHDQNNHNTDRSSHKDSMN
Conditions: selectivity for ETA over ETB; reported by Wu et al. (2004) J. Med. Chem. 47, 1969-1986

ETA/ETB selectivity factor: 441×10^3
Structure (SMILES): CC(=O)c1cc(C)cc(C)c1NC(=O)c1sccc1S(=O)(=O)Nc1onc(C)c1C [TBC3711, N-(2-acetyl-4,6-dimethylphenyl)-3-(3,4-dimethylisoxazol-5-ylsulfamoyl)-thiophene-2-carboxamide]
